# According to patent US20250304620A1, “ANTIMICROBIAL PEPTIDE AND APPLICATION THEREOF” (priority 2023, published 2025):
# Marks after values point to notes of the source that are not given here. Non-standard residues stand in square brackets, D forms with d. PEG500 = polyethylene glycol 500, conjugated to the C-terminus; 2Nal = N[C@@H](Cc1ccc2ccccc2c1)C(=O)O; PEG1000 = polyethylene glycol 1000
# How the values were obtained:
# [1] = test system: Shigella flexneri ATCC 12022; test: MIC against clinically common bacterial strain; type: cell-based
# Summary of the method: (§1)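 Serial twofold peptide dilutions were set up in microdilution format per CLSI, MICs were read, and the procedure was repeated in 5 parallel runs.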
# [2] = test system: Escherichia coli ATCC 25922; test: Oral formulations on mice with systemic bacterial infection; type: in vivo, ICR mice; details: three times a day for 7 days; for Number of mice that died on each day after infection: day 4 / Number of mice that died on each day after infection: day 5 / Number of mice that died on each day after infection: day 6 / Number of mice that died on each day after infection: day 7 / Number of mice that died on each day after infection: day 8 / Average survival times (Days): n = 10; for Average survival times (Days): observed for 14 d
# Summary of the method: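 Survival time and deaths were logged over a 14 d observation after oral gavage dosing (by body weight, thrice daily, 7 days, starting right after infection). Model: mixed-sex ICR mice, n=10 per group, intraperitoneal injection of E. coli ATCC 25922 suspension (0.2 mL, 1×10^7 CFU/mL).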
# [3] = test system: Pseudomonas aeruginosa ATCC 27853; test: Injectable formulations on mice infected with peritonitis; type: in vivo, ICR mice; details: twice a day for 3 days; for Number of mice that died on each day after infection: day 1 / Number of mice that died on each day after infection: day 2 / Number of mice that died on each day after infection: day 3 / Number of mice that died on each day after infection: day 4 / Number of mice that died on each day after infection: day 5 / Average survival times (Days): n = 10; for Average survival times (Days): observed for 14 d
# Summary of the method: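 Survival readout: deaths and survival time tracked for 14 d. Treatment was tail-vein injection by body weight, twice a day for 3 consecutive days, starting right after intraperitoneal challenge with 0.2 mL of 1×10^9 CFU/mL P. aeruginosa ATCC 27853 in male and female ICR mice.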
# [4] = test system: Staphylococcus aureus (NRS 384); details: MIC vs Staphylococcus aureus (NRS 384) after trypsin treatment 1:10 (w/w), 37° C., 3 h
# Experimental: Trypsin (250 U/mg, pH=8.0) and AMPs (LV-1 to LV-30) were mixed in a ratio of 1:10 (w/w) and added to a reaction buffer (0.2 M sodium phosphate, 1 mM CaCl2), pH 7.5), and then incubated at 37° C. for 3 h.
# [5] = test system: Candida albicans ATCC MYA-2876; type: cell-based
# Summary of the method: as §1
# [6] = test system: Klebsiella pneumoniae ATCC 700603; type: cell-based
# Summary of the method: as §1
# [7] = test system: Escherichia coli ATCC 25922; type: cell-based
# Summary of the method: as §1
# Enterococcus ATCC 29212 = type: cell-based
# Summary of the method: as §1
# [8] = test system: Corynebacterium ATCC 7715; type: cell-based
# Summary of the method: as §1
# Candida krusei ATCC 6258 = type: cell-based
# Summary of the method: as §1
# [9] = test system: Pseudomonas aeruginosa ATCC 27853; type: cell-based
# Summary of the method: as §1
# [10] = test system: Trichophyton ATCC MYA-4438; type: cell-based
# Summary of the method: as §1
# [11] = test system: Candida tropicalis ATCC 750; type: cell-based
# Summary of the method: as §1
# [12] = test system: Serratia marcescens ATCC 29021; type: cell-based
# Summary of the method: as §1
# [13] = test system: vancomycin-resistant Enterococcus (VRE); type: cell-based; details: drug-resistant strain VRE
# Summary of the method: (§2)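 Five parallel experiments per strain; values are MICs from CLSI-standard broth microdilution of peptides in twofold steps.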
# [14] = test system: carbapenem-resistant Pseudomonas aeruginosa (CRPA); type: cell-based; details: drug-resistant strain CRPA
# Summary of the method: as §2
# [15] = test system: carbapenem-resistant Escherichia coli (CREC); type: cell-based; details: drug-resistant strain CREC
# Summary of the method: as §2
# [16] = test system: Methicillin-resistant Staphylococcus aureus (MRSA); type: cell-based; details: drug-resistant strain MRSA
# Summary of the method: as §2
# [17] = test system: carbapenem-resistant Klebsiella pneumoniae (CRKP); type: cell-based; details: drug-resistant strain CRKP
# Summary of the method: as §2
substance,measurement,setting,value
Ac-RKLLXRLKXRK-PEG500 [LV-27] (Ac-RKLL[2Nal]RLK[2Nal]RK-PEG500) [polyethylene glycol 500 conjugated to C-terminal; X=3-(2-naphthyl)-alanine],MIC Shigella flexneri ATCC 12022,[1],2 µg/mL
same,Number of mice that died on each day after infection: day 4,[2]; 0.2 mg/kg gavage,1 Mouse
same,Number of mice that died on each day after infection: day 5,[2]; 0.2 mg/kg gavage,1 Mouse
same,Number of mice that died on each day after infection: day 6,[2]; 0.2 mg/kg gavage,2 Mouse
same,Number of mice that died on each day after infection: day 7,[2]; 0.2 mg/kg gavage,1 Mouse
same,Number of mice that died on each day after infection: day 8,[2]; 0.2 mg/kg gavage,0 Mouse
same,Average survival times (Days),[2]; 0.2 mg/kg gavage,9.8** Days
same,Number of mice that died on each day after infection: day 4,[2]; 1 mg/kg gavage,0 Mouse
same,Number of mice that died on each day after infection: day 5,[2]; 1 mg/kg gavage,1 Mouse
same,Number of mice that died on each day after infection: day 6,[2]; 1 mg/kg gavage,1 Mouse
same,Number of mice that died on each day after infection: day 7,[2]; 1 mg/kg gavage,0 Mouse
same,Number of mice that died on each day after infection: day 8,[2]; 1 mg/kg gavage,1 Mouse
same,Average survival times (Days),[2]; 1 mg/kg gavage,11.7**** Days
same,Number of mice that died on each day after infection: day 4,[2]; 5 mg/kg gavage,0 Mouse
same,Number of mice that died on each day after infection: day 5,[2]; 5 mg/kg gavage,2 Mouse
same,Number of mice that died on each day after infection: day 6,[2]; 5 mg/kg gavage,1 Mouse
same,Number of mice that died on each day after infection: day 7,[2]; 5 mg/kg gavage,0 Mouse
same,Number of mice that died on each day after infection: day 8,[2]; 5 mg/kg gavage,0 Mouse
same,Average survival times (Days),[2]; 5 mg/kg gavage,11.4**** Days
same,survival time of mice infected with Escherichia coli,"[2]; gavage, observed 14 d",superior to those of the Levofloxacin group
same,Number of mice that died on each day after infection: day 1,[3]; 0.2 mg/kg via tail vein,2 Mouse
same,Number of mice that died on each day after infection: day 2,[3]; 0.2 mg/kg via tail vein,2 Mouse
same,Number of mice that died on each day after infection: day 3,[3]; 0.2 mg/kg via tail vein,0 Mouse
same,Number of mice that died on each day after infection: day 4,[3]; 0.2 mg/kg via tail vein,1 Mouse
same,Number of mice that died on each day after infection: day 5,[3]; 0.2 mg/kg via tail vein,1 Mouse
same,Average survival times (Days),[3]; 0.2 mg/kg via tail vein,7.1** Days
same,Number of mice that died on each day after infection: day 1,[3]; 1 mg/kg via tail vein,1 Mouse
same,Number of mice that died on each day after infection: day 2,[3]; 1 mg/kg via tail vein,1 Mouse
same,Number of mice that died on each day after infection: day 3,[3]; 1 mg/kg via tail vein,0 Mouse
same,Number of mice that died on each day after infection: day 4,[3]; 1 mg/kg via tail vein,1 Mouse
same,Number of mice that died on each day after infection: day 5,[3]; 1 mg/kg via tail vein,0 Mouse
same,Average survival times (Days),[3]; 1 mg/kg via tail vein,10.5**** Days
same,Number of mice that died on each day after infection: day 1,[3]; 5 mg/kg via tail vein,0 Mouse
same,Number of mice that died on each day after infection: day 2,[3]; 5 mg/kg via tail vein,3 Mouse
same,Number of mice that died on each day after infection: day 3,[3]; 5 mg/kg via tail vein,0 Mouse
same,Number of mice that died on each day after infection: day 4,[3]; 5 mg/kg via tail vein,1 Mouse
same,Number of mice that died on each day after infection: day 5,[3]; 5 mg/kg via tail vein,0 Mouse
same,Average survival times (Days),[3]; 5 mg/kg via tail vein,9.4*** Days
same,survival time of mice infected with Pseudomonas aeruginosa,"[3]; tail vein, observed 14 d",superior to those of the Levofloxacin group
same,Trypsin MIC,[4],1 µg/mL
same,MIC Candida albicans ATCC MYA-2876,[5],8 µg/mL
same,MIC Klebsiella pneumoniae ATCC 700603,[6],8 µg/mL
same,MIC Escherichia coli ATCC 25922,[7],1 µg/mL
same,MIC Enterococcus ATCC 29212,Enterococcus ATCC 29212,2 µg/mL
same,MIC Corynebacterium ATCC 7715,[8],8 µg/mL
same,MIC Candida krusei ATCC 6258,Candida krusei ATCC 6258,8 µg/mL
same,MIC Pseudomonas aeruginosa ATCC 27853,[9],1 µg/mL
same,MIC Trichophyton ATCC MYA-4438,[10],8 µg/mL
same,MIC Candida tropicalis ATCC 750,[11],4 µg/mL
same,MIC Serratia marcescens ATCC 29021,[12],4 µg/mL
same,MIC VRE,[13],8 µg/mL
same,MIC CRPA,[14],4 µg/mL
same,MIC CREC,[15],4 µg/mL
same,MIC MRSA,[16],8 µg/mL
same,MIC CRKP,[17],4 µg/mL
Ac-RKLLXRLKXRK-PEG1000 [LV-28] (Ac-RKLL[2Nal]RLK[2Nal]RK-PEG1000) [polyethylene glycol 1000 conjugated to C-terminal; X=3-(2-naphthyl)-alanine],MIC Shigella flexneri ATCC 12022,[1],4 µg/mL
same,Number of mice that died on each day after infection: day 4,[2]; 1 mg/kg gavage,1 Mouse
same,Number of mice that died on each day after infection: day 5,[2]; 1 mg/kg gavage,2 Mouse
same,Number of mice that died on each day after infection: day 6,[2]; 1 mg/kg gavage,1 Mouse
same,Number of mice that died on each day after infection: day 7,[2]; 1 mg/kg gavage,1 Mouse
same,Number of mice that died on each day after infection: day 8,[2]; 1 mg/kg gavage,0 Mouse
same,Average survival times (Days),[2]; 1 mg/kg gavage,9.7** Days
same,Number of mice that died on each day after infection: day 1,[3]; 1 mg/kg via tail vein,1 Mouse
same,Number of mice that died on each day after infection: day 2,[3]; 1 mg/kg via tail vein,0 Mouse
same,Number of mice that died on each day after infection: day 3,[3]; 1 mg/kg via tail vein,1 Mouse
same,Number of mice that died on each day after infection: day 4,[3]; 1 mg/kg via tail vein,1 Mouse
same,Number of mice that died on each day after infection: day 5,[3]; 1 mg/kg via tail vein,1 Mouse
same,Average survival times (Days),[3]; 1 mg/kg via tail vein,9.7*** Days
same,Trypsin MIC,[4],1 µg/mL
same,MIC Candida albicans ATCC MYA-2876,[5],8 µg/mL
same,MIC Klebsiella pneumoniae ATCC 700603,[6],4 µg/mL
same,MIC Escherichia coli ATCC 25922,[7],2 µg/mL
same,MIC Enterococcus ATCC 29212,Enterococcus ATCC 29212,8 µg/mL
same,MIC Corynebacterium ATCC 7715,[8],8 µg/mL
same,MIC Candida krusei ATCC 6258,Candida krusei ATCC 6258,4 µg/mL
same,MIC Pseudomonas aeruginosa ATCC 27853,[9],2 µg/mL
same,MIC Trichophyton ATCC MYA-4438,[10],8 µg/mL
same,MIC Candida tropicalis ATCC 750,[11],4 µg/mL
same,MIC Serratia marcescens ATCC 29021,[12],8 µg/mL
same,MIC VRE,[13],4 µg/mL
same,MIC CRPA,[14],8 µg/mL
same,MIC CREC,[15],4 µg/mL
same,MIC MRSA,[16],4 µg/mL
same,MIC CRKP,[17],4 µg/mL
